The record followed here is ChEMBL document CHEMBL5338734, “Anticancer Activity of Region B Capsaicin Analogs” (J Med Chem, 2023).

For one data set, the system named is HSC-3. Description: Antiproliferative activity against human HSC-3 cells assessed as inhibition of cell growth incubated for 24 hrs by MTS assay. It counts as functional, cell-based. Particulars: HSC-3, 24 h.
The test system of data set [1] is CAL-27. As to the kind of experiment: Antiproliferative activity against human CAL-27 cells assessed as inhibition of cell growth incubated for 24 hrs by MTS assay. It counts as functional, cell-based. Conditions: CAL-27, 24 h.
The test system of another data set is SCC-4. Description: Antiproliferative activity against human SCC-4 cells assessed as inhibition of cell growth incubated for 24 hrs by MTS assay. It counts as functional, cell-based. Conditions: SCC-4, 24 h.
The test system of a further data set is SCC-9. As to the kind of experiment: Antiproliferative activity against human SCC-9 cells assessed as inhibition of cell growth incubated for 24 hrs by MTS assay. Particulars: SCC-9, 24 h. It counts as functional, cell-based.
Data set [2] can be described thus: Cytotoxicity against human OKF6/TERT-2 cells assessed as inhibition of cell growth at >7.5 uM incubated for 24 hrs by MTS assay. It counts as toxicity, cell-based. Conditions: read-out: Activity.
Data set [3] concerns CAL-27. As to the kind of experiment: Antitumor activity against human CAL-27 cells xenografted in mouse assessed as mean tumor volume at 12 mg/kg, ip measured for 4 weeks by hematoxylin and eosin staining based analysis (reference value: 541 […]). It counts as functional.
Data set [4] relates to CAL-27. As to the kind of experiment: Antitumor activity against human CAL-27 cells xenografted in mouse assessed as fold decrease in tumor size at 12 mg/kg, ip measured for 4 weeks by hematoxylin and eosin staining based analysis relative to control. It counts as functional.
Data set [5] deals with CAL-27. As to the kind of experiment: Antiproliferative activity against human CAL-27 cells assessed as reduction of cell growth at 500 uM incubated for 24 hrs in presence of cisplatin by MTS assay. It counts as functional. On the set-up: scale not given: the % may be the effect or the level left.
For data set [6], the system named is CAL-27. Description: Antiproliferative activity against human CAL-27 cells assessed as reduction of cell growth at 500 uM incubated for 24 hrs in presence of gefitinib by MTS assay. Also noted: scale not given: the % may be the effect or the level left. It counts as functional.
Data set [7] relates to CAL-27. Description: Antiproliferative activity against human CAL-27 cells assessed as reduction of cell growth at 500 uM incubated for 24 hrs by MTS assay. On the set-up: scale not given: the % may be the effect or the level left. It counts as functional.
The next data set deals with HeLa. As to the kind of experiment: Antiproliferative activity against human HeLa cells assessed as inhibition of cell growth incubated for 24 hrs by MTS assay. It counts as functional, cell-based.
In the next data set the test system is NCI-H460. Description: Antiproliferative activity against human NCI-H460 cells assessed as inhibition of cell growth incubated for 24 hrs by MTS assay. It counts as functional, cell-based. Conditions: NCI-H460, 24 h.
Data set [8] concerns MDA-MB-231. As to the kind of experiment: Antiproliferative activity against human MDA-MB-231 cells assessed as inhibition of cell growth incubated for 24 hrs by MTS assay. It counts as functional, cell-based. Particulars: MDA-MB-231, 24 h.
In another data set the test system is PC-3. Description: Antiproliferative activity against human PC-3 cells assessed as inhibition of cell growth incubated for 24 hrs by MTS assay. It counts as functional, cell-based. Conditions: PC-3, 24 h.
In data set [9] the test system is MCF7. Description: Antiproliferative activity against human MCF7 cells assessed as inhibition of cell growth incubated for 24 hrs by MTT assay. Particulars: MCF7, 24 h. It counts as functional, cell-based.
Data set [10] has as its system SK-MEL-28. As to the kind of experiment: Antiproliferative activity against human SK-MEL-28 cells assessed as inhibition of cell growth incubated for 24 hrs by MTT assay. It counts as functional, cell-based. Particulars: SK-MEL-28, 24 h.
The test system of another data set is SBcl2. As to the kind of experiment: Antiproliferative activity against human SBcl2 cells assessed as inhibition of cell growth incubated for 24 hrs by MTT assay. It counts as functional, cell-based. Particulars: SBcl2, 24 h.
Data set [11] can be described thus: Antiproliferative activity against human SK-MEL-85 cells assessed as inhibition of cell growth incubated for 24 hrs by MTT assay. It counts as functional, cell-based. Conditions: SK-MEL-85, 24 h.
In data set [12] the test system is MCF7. As to the kind of experiment: Antiproliferative activity against human MCF7 cells assessed as inhibition of cell growth by MTT assay. It counts as functional, cell-based.
In data set [13] the test system is MDA-MB-231. Description: Antiproliferative activity against human MDA-MB-231 cells assessed as inhibition of cell growth by MTT assay. It counts as functional, cell-based.
For another data set, the system named is BT-474. Description: Antiproliferative activity against human BT-474 cells assessed as inhibition of cell growth by MTT assay. It counts as functional, cell-based.
In a further data set the test system is Jurkat. As to the kind of experiment: Induction of apoptosis in human Jurkat cells assessed as increase in apoptotic cells by propidium iodide staining based flow cytometry. It counts as functional, cell-based.
The next data set deals with B16-F10. Description: Antiproliferative activity against B16-F10 cells assessed as inhibition of cell growth measured after 24 hrs by MTT assay. It counts as functional, cell-based. Particulars: Mus musculus, B16-F10, 24 h.
In another data set the test system is NCI-H1299. As to the kind of experiment: Antiproliferative activity against human NCI-H1299 cells assessed as inhibition of cell growth measured after 24 hrs by MTT assay. It counts as functional, cell-based. Conditions: NCI-H1299, 24 h.
Data set [14] has as its system SK-MEL-28. As to the kind of experiment: Antiproliferative activity against human SK-MEL-28 cells assessed as inhibition of cell growth measured after 24 hrs by MTT assay. It counts as functional, cell-based. Conditions: SK-MEL-28, 24 h.
The subject of another data set is DU-145. As to the kind of experiment: Antiproliferative activity against human DU-145 cells assessed as inhibition of cell growth. It counts as functional, cell-based.
Data set [15] relates to CAL-27. As to the kind of experiment: Antiproliferative activity against human CAL-27 cells assessed as reduction of cell growth at 100 nM incubated for 24 hrs by MTS assay. It counts as functional. Also noted: scale not given: the % may be the effect or the level left.
A further data set concerns T-24. As to the kind of experiment: Antiproliferative activity against human T24 cells assessed as inhibition of cell growth measured after 24 hrs by MTT assay. Conditions: T-24, 24 h. It counts as functional, cell-based.
For another data set, the system named is 5637. As to the kind of experiment: Antiproliferative activity against human 5637 cells assessed as inhibition of cell growth measured after 24 hrs by MTT assay. Particulars: Homo sapiens, 5637, 24 h. It counts as functional, cell-based.

Each structure is given as a SMILES string.

Take `Oc1cc2c(cc1O)CN(C(=S)NCCc1ccc(Cl)cc1)CC2`: the IC50 in the data set with HSC-3, in the data set on CAL-27 [1], with SCC-4 and in the data set on SCC-9 was 2.5 µM throughout. The inhibition at 24 h in data set [2] was 20%. Moreover, the Activity in the data set with CAL-27 [3] came to 211 mm3. Moreover, in the data set with CAL-27 [4], the “fold change (FC)” value came out at 2.6.

On to `Oc1cc2c(cc1O)C(c1ccccc1)N(C(=S)NCCc1ccc(Cl)cc1)CC2` (stereo not given), for which the IC50 in the data set with HSC-3 was 1 µM; in the data set on CAL-27 [1], 1 µM; in the data set on SCC-4 it was 1 µM; with SCC-9, 1 µM; in the data set on HeLa, approximately 5 µM; in the data set with NCI-H460 it was 7.5 µM. Also, the values for the IC50 in the data set on MDA-MB-231 [8] and with PC-3 were 2.5 µM and 1 µM, respectively. In addition, the inhibition at 24 h in data set [2] came out at 20%. The Activity with CAL-27 [5] is 95%; in the data set with CAL-27 [6], approximately 80%; with CAL-27 [7] it was 20%; in the data set with CAL-27 [3], 333 mm3. The “fold change (FC)” value with CAL-27 [4] was found to be 4.

`O=S(=O)(NCc1ccc2c(c1)OCO2)c1ccccc1`: the IC50 with MCF7 [9] turned out to be 32 µM; with SK-MEL-28 [10], 19.1 µM; in the data set on SBcl2, 17.5 µM; in [11], 15.7 µM.

Regarding `CCOC(=O)C1=C(c2ccccc2)NC(C)=C(C(=O)SCCOC)C1CC` (stereo not given), the IC50 with MCF7 [12] amounted to 3 µM; in the data set on MDA-MB-231 [13], 40.8 µM; in the data set with BT-474, 10.6 µM.

`COc1cc(COC(=O)CCCCCC(C)C)ccc1O`: the IC50 in the data set with Jurkat is approximately 70 µM.

Consider `Oc1cc2c(cc1O)C(c1ccccc1)N(C(=S)NCc1ccccc1)CC2` (stereo not given), for which the IC50 in the data set with HSC-3, in the data set with CAL-27 [1], in the data set on SCC-4 and with SCC-9 was 20 µM each time. Also, the inhibition at 24 h in [2] is 20%. In the data set on CAL-27 [3], the Activity is recorded as 134 mm3. Further, the “fold change (FC)” value in the data set with CAL-27 [4] is 1.6.

For the molecule `COc1ccc(CC(=O)OCc2ccc3c(c2)OCO3)cc1`, the IC50 in the data set with B16-F10 came out at 117 µM; in the data set on NCI-H1299, 187 µM.

As to `CCCCCCCCCCC(=O)OCc1ccc2c(c1)OCO2`, the values for the IC50 in the data set with B16-F10 and in the data set with SK-MEL-28 [14] were 87 µM and 85 µM, respectively.

For `COc1cc(CNC(=O)CCCC/C=C/C(C)C)ccc1O` [CAPSAICIN], the IC50 with Jurkat is approximately 128 µM; in the data set on B16-F10, 117 µM; with NCI-H1299, not below 200 µM; in the data set with MCF7 [9], approximately 53 µM.

With `Oc1cc2c(cc1O)CN(C(=S)NCCc1ccc(Cl)cc1)CCC2` [CAPSAZEPINE], the IC50 with DU-145 was found to be 54 µM. In addition, the Activity in the data set with CAL-27 [3] amounted to 269 mm3. Moreover, in the data set on CAL-27 [4], the “fold change (FC)” value was determined as 2.

In the case of `COc1cc2ncnc(Nc3ccc(F)c(Cl)c3)c2cc1OCCCN1CCOCC1` [GEFITINIB], in the data set on CAL-27 [15], the Activity is given as 50%.

On to `C=C(C)[C@]12C[C@@H](C)[C@@]34O[C@](Cc5ccccc5)(O[C@@H]1[C@@H]3C=C(COC(=O)Cc1ccc(O)c(OC)c1)C[C@]1(O)C(=O)C(C)=C[C@@H]41)O2` [RESINIFERATOXIN], for which the figures for the IC50 in the data set on T-24 and with 5637 were approximately 21.4 µM and 19.9 µM, respectively.
